PubChem BioAssay (NCI)
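Where inhibition never reached the appropriate level, the endpoint shown equals the highest concentration tested. Otherwise, values were interpolated linearly from a five-concentration, 48-hour dose response in 96-well plates. TGI is the concentration that stops growth completely.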

Assays:
Assay in all cases: growth of human tumour cells (NCI), 48 h
[1] = test system: MDA-MB-231 breast
[2] = test system: SK-MEL-2 melanoma
[3] = test system: HOP-62 NSCLC
[4] = test system: SF-539 CNS
[5] = test system: NCI-H460 lung
[6] = test system: SK-MEL-28 melanoma
[7] = test system: CCRF-CEM leukemia
[8] = test system: MCF7 breast
[9] = test system: UACC-62 melanoma
[10] = test system: OVCAR-4 ovarian
[11] = test system: SF-295 CNS
[12] = test system: UO-31 renal
[13] = test system: HL-60(TB) leukemia
[14] = test system: HCT-15 colon
[15] = test system: HOP-92 NSCLC
[16] = test system: MOLT-4 leukemia
[17] = test system: ACHN renal
[18] = test system: K-562 leukemia
[19] = test system: A549 NSCLC
[20] = test system: NCI-H23 lung
[21] = test system: CAKI-1 renal
[22] = test system: OVCAR-8 ovarian
[23] = test system: COLO 205 colon
[24] = test system: BT-549 breast
[25] = test system: NCI-H522 lung
[26] = test system: HCT-116 colon
[27] = test system: MALME-3M melanoma
[28] = test system: RPMI-8226 leukemia
[29] = test system: IGROV1 ovarian
[30] = test system: NCI-H226 lung
[31] = test system: SW-620 colon
[32] = test system: M14 melanoma
[33] = test system: MDA-MB-435
[34] = test system: SNB-75 CNS
[35] = test system: SN12C renal
[36] = test system: LOX IMVI melanoma
[37] = test system: 786-0 renal
[38] = test system: HCC-2998 colon
[39] = test system: NCI/ADR-RES ovarian
[40] = test system: OVCAR-5 ovarian
[41] = test system: OVCAR-3 ovarian
[42] = test system: EKVX NSCLC
[43] = test system: SF-268 CNS
[44] = test system: HT29 colon
[45] = test system: PC-3 prostate
[46] = test system: DU-145 prostate
[47] = test system: MDA-N
[48] = test system: SNB-19 CNS
[49] = test system: HS 578T breast
[50] = test system: SK-OV-3 ovarian
[51] = test system: TK-10 renal
[52] = test system: UACC-257 melanoma
[53] = test system: SR leukemia
[54] = test system: U251 CNS

C=C1C[C@]23CC[C@@H]4C(CO)(CO)CC(=O)C[C@]4(C)[C@@H]2CC[C@H]1C3
TGI [1]: > 100 µM | TGI [2]: > 100 µM | TGI [3]: > 100 µM | TGI [4]: > 100 µM | TGI [5]: > 100 µM | TGI [6]: > 100 µM | TGI [7]: > 100 µM | TGI [8]: > 100 µM | TGI [9]: > 100 µM | TGI [10]: > 100 µM | TGI [11]: > 100 µM | TGI [12]: > 100 µM | TGI [13]: > 100 µM | TGI [14]: > 100 µM | TGI [15]: > 100 µM | TGI [16]: > 100 µM | TGI [17]: > 100 µM | TGI [18]: > 100 µM | TGI [19]: > 100 µM | TGI [20]: > 100 µM | TGI [21]: > 100 µM | TGI [22]: > 100 µM | TGI [23]: > 100 µM | TGI [24]: > 100 µM | TGI [25]: > 100 µM | TGI [26]: > 100 µM | TGI [27]: > 100 µM | TGI [28]: > 100 µM | TGI [29]: > 100 µM | TGI [30]: > 100 µM | TGI [31]: > 100 µM | TGI [32]: > 100 µM | TGI [33]: > 100 µM | TGI [34]: > 100 µM | TGI [35]: > 100 µM | TGI [36]: > 100 µM | TGI [37]: > 100 µM | TGI [38]: > 100 µM | TGI [39]: > 100 µM | TGI [40]: > 100 µM | TGI [41]: > 100 µM | TGI [42]: > 100 µM | TGI [43]: > 100 µM | TGI [44]: > 100 µM | TGI [45]: > 100 µM | TGI [46]: > 100 µM | TGI [47]: > 100 µM | TGI [48]: 35.9 µM | TGI [49]: > 100 µM | TGI [50]: > 100 µM | TGI [51]: > 100 µM | TGI [52]: > 100 µM | TGI [53]: > 100 µM | TGI [54]: > 100 µM
